Test results as given in ChEMBL document CHEMBL1136292, “Synthesis and AMPA receptor antagonistic activity of a novel class of quinoxalinecarboxylic acid with a substituted phenyl group at the C-7 position” (Bioorg Med Chem Lett, 2003).
Calls of active or inactive are those of the source. The calls are words filed in the database; no cut-off is given here.

Key:
[1] = molecular target: Glutamate receptor ionotropic, AMPA (Rattus norvegicus, UniProt P19490+P19491+P19492+P19493); assay: biochemical
Description: Binding affinity for ionotropic glutamate receptor AMPA using [3H]AMPA as radioligand, bound to synaptic membranes prepared from rat cerebral cortex

[2] = system: Rattus norvegicus; assay: Neuroprotective effect in rat after iv administration at a dose of 15 mg/kg/h for 4 h; type: functional
[3] = organism: Rattus norvegicus; assay: In vitro inhibitory effect on AMPA-induced DC potential in rat cortical slices; active; type: functional
[4] = system: Rattus norvegicus; assay: Neuroprotective effect in rat after iv administration at a dose of 30 mg/kg/h for 4 h; type: functional
[5] = system: Rattus norvegicus; assay: Neuroprotective effect in rat after iv administration at a dose of 20 mg/kg/h for 4 h; type: functional
[6] = system: Rattus norvegicus; assay: Neuroprotective effect in rat after iv administration at a dose of 5 mg/kg/h for 4 h; type: functional
[7] = system: Rattus norvegicus; assay: Neuroprotective effect in rat after iv administration at a dose of 2.5 mg/kg/h for 4 h; type: functional

Ki [1] [nM] | Structure (SMILES) | further results
> 900 | O=C(Nc1ccccc1C(=O)O)OCc1cn(-c2cc3nc(C(=O)O)c(=O)[nH]c3cc2[N+](=O)[O-])cn1 | –
910 | CN(C)c1cc2nc(C(=O)O)c(O)nc2cc1[N+](=O)[O-] | –
530 | O=C(O)Cc1cn(-c2cc3nc(C(=O)O)c(O)nc3cc2[N+](=O)[O-])cn1 | –
86 | O=C(Nc1ccccc1)OCc1cn(-c2cc3nc(C(=O)O)c(O)nc3cc2[N+](=O)[O-])cn1 | –
100 | O=c1[nH]c2cc(-n3ccnc3)c([N+](=O)[O-])cc2[nH]c1=O [YM-90K] | Activity [2]: 2.8; activity call (active/inactive) [3]: Active
2000 | O=C(O)c1nc2cc(N3CCOCC3)c([N+](=O)[O-])cc2nc1O | –
47 | O=C(NCc1ccc(Br)cc1)OCc1cn(-c2cc3nc(C(=O)O)c(O)nc3cc2[N+](=O)[O-])cn1 | –
– | NS(=O)(=O)c1cccc2c1c([N+](=O)[O-])cc1nc(O)c(O)nc12 [NBQX] | Activity [4]: 2.3
30 | Cc1ccc(NC(=O)OCc2cn(-c3cc4nc(C(=O)O)c(O)nc4cc3[N+](=O)[O-])cn2)cc1 | –
– | O=C(O)c1nc2cc(-n3ccnc3)c([N+](=O)[O-])cc2nc1O | Activity [5]: 0.2; activity call (active/inactive) [3]: Active
32 | O=C(Nc1ccc(Br)cc1)OCc1cn(-c2cc3nc(C(=O)O)c(=O)[nH]c3cc2[N+](=O)[O-])cn1 | –
> 10000 | Cc1nccn1-c1cc2nc(C(=O)O)c(O)nc2cc1[N+](=O)[O-] | –
1300 | Cc1cn(-c2cc3nc(C(=O)O)c(O)nc3cc2[N+](=O)[O-])cn1 | –
2000 | O=C(O)c1nc2cc(F)c([N+](=O)[O-])cc2nc1O | –
20 | O=C(Nc1ccccc1Cl)OCc1cn(-c2cc3nc(C(=O)O)c(O)nc3cc2[N+](=O)[O-])cn1 | –
3800 | O=C(O)c1nc2cc(N3CCCCC3)c([N+](=O)[O-])cc2nc1O | –

Ki [1] [nM] | Structure (SMILES) | further results
27 | O=C(Nc1cccc(C(=O)O)c1)OCc1cn(-c2cc3nc(C(=O)O)c(O)nc3cc2[N+](=O)[O-])cn1 | activity call (active/inactive) [3]: Active; Activity [6]: 2.3
30 | O=C(Nc1ccccc1Br)OCc1cn(-c2cc3nc(C(=O)O)c(O)nc3cc2[N+](=O)[O-])cn1 | –
18 | O=C(Nc1cccc(Cl)c1)OCc1cn(-c2cc3nc(C(=O)O)c(O)nc3cc2[N+](=O)[O-])cn1 | –
22 | O=C(Nc1ccc(C(=O)O)cc1)OCc1cn(-c2cc3nc(C(=O)O)c(=O)[nH]c3cc2[N+](=O)[O-])cn1 | –
22 | Cc1cccc(NC(=O)OCc2cn(-c3cc4nc(C(=O)O)c(O)nc4cc3[N+](=O)[O-])cn2)c1 | –
560 | O=C(O)c1nc2cc(-n3ccnc3)c([N+](=O)[O-])cc2[nH]c1=O | –
30 | O=C(Nc1ccc(Cl)cc1)OCc1cn(-c2cc3nc(C(=O)O)c(O)nc3cc2[N+](=O)[O-])cn1 | –
2600 | O=C(O)c1nc2cc(-n3cnc(CO)c3)c([N+](=O)[O-])cc2[nH]c1=O | –
100 | O=C(NCc1cccc(Br)c1)OCc1cn(-c2cc3nc(C(=O)O)c(O)nc3cc2[N+](=O)[O-])cn1 | –
67 | O=C(NCc1ccccc1)OCc1cn(-c2cc3nc(C(=O)O)c(=O)[nH]c3cc2[N+](=O)[O-])cn1 | –
– | O=C(Nc1ccc(C(=O)O)cc1)OCc1cn(-c2cc3nc(C(=O)O)c(O)nc3cc2[N+](=O)[O-])cn1 | Activity [7]: 3; activity call (active/inactive) [3]: Active
62 | O=C(O)Cn1c(=O)c(=O)[nH]c2cc([N+](=O)[O-])c(-n3ccnc3)cc21 [ZONAMPANEL] | activity call (active/inactive) [3]: Active; Activity [4]: 0.5
2500 | O=C(O)c1nc2cc(N3CCC(O)CC3)c([N+](=O)[O-])cc2nc1O | –
16 | O=C(Nc1cccc(Br)c1)OCc1cn(-c2cc3nc(C(=O)O)c(O)nc3cc2[N+](=O)[O-])cn1 | –
16 | Cc1ccccc1NC(=O)OCc1cn(-c2cc3nc(C(=O)O)c(O)nc3cc2[N+](=O)[O-])cn1 | –

Structure (SMILES) | Ki [1] [nM] | further results
O=C(Nc1ccc(C(=O)O)cc1)OCCc1cn(-c2cc3nc(C(=O)O)c(=O)[nH]c3cc2[N+](=O)[O-])cn1 | 270 | –
O=C(O)c1nc2cc(-n3ccc(=O)cc3)c([N+](=O)[O-])cc2nc1O | 330 | –
O=C(Nc1ccccc1)OCc1cn(-c2cc3nc(C(=O)O)c(O)nc3cc2[N+](=O)[O-])ccc1=O | 170 | –
O=C(NCc1ccccc1Br)OCc1cn(-c2cc3nc(C(=O)O)c(O)nc3cc2[N+](=O)[O-])cn1 | 29 | –
